The target in this assay is T1, MC4R (Homo sapiens, UniProt P32245).
T1 construct: expressed in transfected cells; host or cells: HEK (Human Embryonic Kidney) permanent expression cell line HEK MC4R-Luc, co-expressing CRE-luciferase
In words: MCR agonistic activity (luciferase assay / cAMP accumulation assay) on MC4R. To be noted: HEK cell lines expressing MC4R; method A (CRE-luciferase) or B (cAMP accumulation), not said which; read-out: EC50 value, agonistic activity to MC4R (range per group of Examples). It counts as cell-based. The essentials:
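HEK cells stably expressing MC4R with a CRE-luciferase reporter treated 5 hours at 37 °C with serially diluted agonist (≤1% DMSO); luminescence expressed relative to 10 nM NDP-MSH, EC50 at half-maximal signal. Alternatively, cAMP measured after 30 minutes with compound plus 500 μM IBMX by [3H]-cAMP competition binding.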

SMILES strings stand for the structures.

Consider seven compounds from patent publication US8183243B2, “Melanocortin receptor agonists” (LG Life Sciences Ltd., priority 2008, dated 2012).

T1 sequence (P32245 whole entry, species assumed): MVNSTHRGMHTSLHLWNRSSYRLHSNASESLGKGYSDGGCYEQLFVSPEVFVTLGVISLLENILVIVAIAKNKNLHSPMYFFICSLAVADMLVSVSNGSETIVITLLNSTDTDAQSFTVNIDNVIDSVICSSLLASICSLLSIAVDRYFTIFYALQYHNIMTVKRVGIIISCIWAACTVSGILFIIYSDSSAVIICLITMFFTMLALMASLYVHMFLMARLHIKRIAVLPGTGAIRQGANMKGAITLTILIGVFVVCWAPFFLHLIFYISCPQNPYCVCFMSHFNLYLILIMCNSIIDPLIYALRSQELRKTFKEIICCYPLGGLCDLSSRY

Take `CN1CCN(C(=O)[C@@H]2C[C@H](N(C(=O)[C@@H]3CCCO3)[C@H]3CC[C@@H](C)CC3)CN2C(=O)[C@@H]2CN(c3ccccc3)C[C@H]2c2ccc(Cl)cc2)CC1` [Example 46, (2S)-N-{(3S,5S)-1-{[(3S,4R)-4-(4-chlorophenyl)-1-phenylpyrrolidin-3-yl]carbonyl}-5-[(4-methylpiperazin-1-yl)carbonyl]pyrrolidin-3-yl}-N-(cis-4-methylcyclohexyl)tetrahydrofuran-2-carboxamide]: the 50% effective concentration (EC50) was 10 to 100 nM. For the compound `CC(C)N1CCN(C(=O)[C@@H]2C[C@H](N(C(=O)[C@@H]3CCCO3)C3CCC(C)(C)CC3)CN2C(=O)[C@@H]2CN(C3CCOCC3)C[C@H]2c2ccc(F)cc2F)CC1` [Example 47, (2S)-N-{(3S,5S)-1-{[(3S,4R)-4-(2,4-difluorophenyl)-1-(tetrahydro-2H-pyran-4-yl)pyrrolidin-3-yl]carbonyl}-5-[(4-isopropylpiperazin-1-yl)carbonyl]pyrrolidin-3-yl}-N-(4,4-dimethylcyclohexyl)tetrahydrofuran-2-carboxamide], the EC50 lay in the range of 10 to 100 nM. Regarding `CC(C)N1CCN(C(=O)[C@@H]2C[C@H](N(C(=O)[C@@H]3CCCO3)C3CCC(C)(C)CC3)CN2C(=O)[C@@H]2CN(C3CCSCC3)C[C@H]2c2ccc(F)cc2F)CC1` [Example 48, (2S)-N-{(3S,5S)-1-{[(3S,4R)-4-(2,4-difluorophenyl)-1-(tetrahydro-2H-thiopyran-4-yl)pyrrolidin-3-yl]carbonyl}-5-[(4-isopropylpiperazin-1-yl)carbonyl]pyrrolidin-3-yl}-N-(4,4-dimethylcyclohexyl)tetrahydrofuran-2-carboxamide], the EC50 lay within 10 to 100 nM. With `CN1CCN(C(=O)[C@@H]2C[C@H](N(C(=O)C(C)(C)CO)C3CCC(C)(C)CC3)CN2C(=O)[C@@H]2CN(C3CCOCC3)C[C@H]2c2ccc(Cl)cc2)CC1` [Example 49, N-{(3S,5S)-1-{[(3S,4R)-4-(4-chlorophenyl)-1-(tetrahydro-2H-pyran-4-yl)pyrrolidin-3-yl]carbonyl}-5-[(4-methylpiperazin-1-yl)carbonyl]pyrrolidin-3-yl}-N-(4,4-dimethylcyclohexyl)-3-hydroxy-2,2-dimethylpropanamide], the EC50 was in the range of 0.1 to 10 nM. Take `CN1CCN(C(=O)[C@@H]2C[C@H](N(C(=O)C(C)(C)C)C3CCC(F)(F)CC3)CN2C(=O)[C@@H]2CN(C3CCOCC3)C[C@H]2c2ccc(Cl)cc2)CC1` [Example 50, N-{(3S,5S)-1-{[(3S,4R)-4-(4-chlorophenyl)-1-(tetrahydro-2H-pyran-4-yl)pyrrolidin-3-yl]carbonyl}-5-[(4-methylpiperazin-1-yl)carbonyl]pyrrolidin-3-yl}-N-(4,4-difluorocyclohexyl)-2,2-dimethylpropanamide]: the concentration for a half-maximal effect (EC50) lay within 0.1 to 10 nM.

Regarding `CN1CCN(C(=O)[C@@H]2C[C@H](N(C(=O)[C@@H]3CCCO3)C3CCC(F)(F)CC3)CN2C(=O)[C@@H]2CN(C3CCOCC3)C[C@H]2c2ccc(Cl)cc2)CC1` [Example 51, (2S)-N-{(3S,5S)-1-{[(3S,4R)-4-(4-chlorophenyl)-1-(tetrahydro-2H-pyran-4-yl)pyrrolidin-3-yl]carbonyl}-5-[(4-methylpiperazin-1-yl)carbonyl]pyrrolidin-3-yl}-N-(4,4-difluorocyclohexyl)tetrahydrofuran-2-carboxamide], the EC50 lay in the range of 10 to 100 nM.

Regarding `CC(C)N1CCN(C(=O)[C@H]2C[C@H](N(C(=O)[C@@H]3CCCO3)C3CCC(C)(C)CC3)CN2C(=O)[C@@H]2CN(C3CCOCC3)C[C@H]2c2ccc(F)cc2F)CC1` [Example 52, (2S)-N-{(3S,5R)-1-{[(3S,4R)-4-(2,4-difluorophenyl)-1-(tetrahydro-2H-pyran-4-yl)pyrrolidin-3-yl]carbonyl}-5-[(4-isopropylpiperazin-1-yl)carbonyl]pyrrolidin-3-yl}-N-(4,4-dimethylcyclohexyl)tetrahydrofuran-2-carboxamide], the concentration giving a half-maximal response (EC50) lay in the range of 0.1 to 10 nM.

As usually defined, the EC50 is the midpoint of the concentration-response curve.
